Measured values from the NIST ThermoML archive (doi:10.1016/j.tca.2005.04.030).

Assays:
[1] = refractive index (Na D-line) (dimensionless); xn = mol fraction of the nth substance listed; conditions: 298 K, 101 kPa, Liquid, ATAGO RX-1000
[2] = xn = mol fraction of the nth substance listed; conditions: 298 K, 101 kPa, Liquid; for speed of sound: Anton Paar DSA 48; for mass density: Vibrating tube method

CCCCOC(C)(C)C [butane, 1-(1,1-dimethylethoxy)-] + CCO
Conditions	mass density, [2] [kg/m3]	refractive index, [1]	speed of sound, [2] [m/s]
x1 = 0.0493	782.41	1.36389	1141
x1 = 0.0589	781.92	1.36463	1139
x1 = 0.0797	780.9	1.36652	1139
x1 = 0.1006	779.92	1.36783	1136
x1 = 0.1555	777.57	1.37143	1133
x1 = 0.1947	776.05	1.37365	1132
x1 = 0.1978	775.98	1.37382	1132
x1 = 0.2528	773.99	1.3765	1129
x1 = 0.2923	772.71	1.37818	1127
x1 = 0.2967	772.6	1.37834	1128
x1 = 0.3512	770.96	1.38037	1125
x1 = 0.3966	769.83	1.38183	1124
x1 = 0.397	769.71	1.38186	1124
x1 = 0.4313	768.83	1.38287	1123
x1 = 0.4999	767.3	1.38462	1122
x1 = 0.5118	766.95	1.38494	1121
x1 = 0.559	765.94	1.38599	1120
x1 = 0.5953	765.3	1.38674	1119
x1 = 0.5964	765.18	1.38674	1119
x1 = 0.6627	763.92	1.38795	1118
x1 = 0.6853	763.6	1.38828	1120
x1 = 0.7044	763.16	1.38862	1118
x1 = 0.7441	762.45	1.3892	1117
x1 = 0.7814	761.8	1.3897	1117
x1 = 0.7853	761.72	1.38986	1118
x1 = 0.8493	760.58	1.3905	1116
x1 = 0.9072	759.5	1.39106	1115
x1 = 0.9404	758.85	1.39132	1115

CCCCOC(C)(C)C [butane, 1-(1,1-dimethylethoxy)-] + CO
Conditions	mass density, [2] [kg/m3]	refractive index, [1]	speed of sound, [2] [m/s]
x1 = 0.0406	783.42	1.33673	1103
x1 = 0.0518	782.76	1.33916	1104
x1 = 0.0974	780.08	1.34774	1103
x1 = 0.0984	779.91	1.34786	1104
x1 = 0.1493	777.55	1.35545	1105
x1 = 0.198	775.42	1.36125	1107
x1 = 0.2051	775.26	1.36198	1107
x1 = 0.2448	773.83	1.3658	1108
x1 = 0.2974	772.2	1.37001	1109
x1 = 0.3373	770.98	1.37281	1109
x1 = 0.3581	770.41	1.37411	1109
x1 = 0.3783	769.88	1.37529	1109
x1 = 0.3922	769.7	1.37605	1111
x1 = 0.4633	767.85	1.37952	1111
x1 = 0.4954	767.15	1.38087	1113
x1 = 0.5003	767.05	1.38106	1111
x1 = 0.5598	765.86	1.38325	1112
x1 = 0.5955	765.21	1.3845	1114
x1 = 0.6138	764.85	1.38496	1113
x1 = 0.6463	764.27	1.38588	1113
x1 = 0.6737	763.79	1.3866	1114
x1 = 0.6923	763.48	1.38706	1114
x1 = 0.721	762.99	1.38773	1114
x1 = 0.7904	761.8	1.38914	1114
x1 = 0.7934	761.75	1.38918	1114
x1 = 0.8479	760.78	1.3901	1114
x1 = 0.8631	760.5	1.39032	1114
x1 = 0.8964	759.86	1.3907	1115
x1 = 0.9255	759.26	1.39109	1114
